BindingDB's records for doi:10.1021/acs.jmedchem.0c00377 (Huazhong University of Science and Technology, 2020)
pKd: −log10 of the molar value.

Columns and labels:
[1] = Binding affinity to recombinant TNFalpha (unknown origin) expressed in Escherichia coli BL21 (DE3) assessed as Kd for TNF-alpha-TNFR1 binding at 100 uM pe-incubated for 15 mins before TNFR1 addition and measured after 15 mins by MST assay (Rvb = 0.23 uM)
[2] = Binding affinity to recombinant TNFalpha (unknown origin) expressed in Escherichia coli BL21 (DE3) assessed as Kd for TNF-alpha-TNFR1 binding at 10 uM pe-incubated for 15 mins before TNFR1 addition and measured after 15 mins by MST assay (Rvb = 0.23 uM)

O=C1C[C@H](Nc2ncnc3[nH]cnc23)CN1Cc1ccccc1
pKd [1]: 4.71 | pKd [2]: 5.37
